Laboratory results published in patent US11135193B2, “Composition containing monoacetyldiacylglycerol compound as active ingredient for preventing or treating asthma” (Enzychem Lifesciences Corporation, priority 2013, dated 2021).
Where two headings read alike, the source gives them in different places. Marks after values point to notes of the source that are not given here.

How the values were obtained:
[1] = system: EL-4 cells; settings: mouse, 24 h
Description: (§2) EL-4 cells that are mouse T lymphoma cells were suspended in 10% fetal bovine serum-containing RPMI medium (Gibco) at a concentration of 5×10^4 cells/ml, and 100 μl of the cell suspension was seeded into each well of a 96-well plate and cultured for 12 hours. Next, the cell culture was treated with monoacetyldiacylglycerol (MADG) compounds at the concentrations shown in Table 1 below, and was then additionally cultured for 24 hours. Next, according to the instruction provided in a CCK-8 kit (Dojindo) capable of counting cells, 10 μl of CCK-8 solution was added to the kit and allowed to react for 30 minutes to 4 hours, and then the absorbance (OD) at 570 nm was measured. In equation 1, the negative control group indicates a cell culture treated with 0.2% DMSO. […] Cell viability (%)=[(OD 570 nm value of MADC-treated group)/(OD 570 nm value of negative control group)]×100 Equation 1

[2] = system: ovalbumin-induced asthma Balb/c mice; assay: Airway hyperresponsiveness (Pehn, plethysmography) in ovalbumin-induced asthma model; assay type: in vivo, mouse; settings: 30 mg/kg oral
Description: (§1) 6-week-old female SPF (specific pathogen-free) Balb/c mice (average weight: 20 g) were purchased from Samtako (Korea). The animals were sufficiently fed with solid feed (antibiotic-free, Samyang Feed Co.) and water until the start point of the experiment, and acclimated at a temperature of 22±2° C., a humidity of 55±15%, and a 12-hr light/12-hr dark cycle for 1 week, and then used in experiments. After 1 week of the acclimation period as described above, the mice were sensitized by intraperitoneal administration of a suspension of 2 mg of aluminum oxide (A8222, Sigma-Aldrich, MO, USA) and 20 μg of ovalbumin (A5503, Sigma-Aldrich) in 200 μl of phosphate buffered saline at two-week intervals. During a period from day 21 to day 23 after the first intraperitoneal administration of ovalbumin, 1% ovalbumin was inhaled into the mice for 30 minutes using an ultrasonic nebulizer (NE-U12, Omron Corp., Japan). At 24 hours after the last ovalbumin challenge, the airway hyperresponsiveness of the mice was measured, and after 48 hours, the mice were anesthetized by intraperitoneal administration of Pentobarbital (50 mg/kg, Entobal, Hanil, Korea). Then, blood was collected through the saphenous vein, and the mice were subjected to tracheostomy. Next, each of the mice was subjected to bronchoalveolar lavage with a total of 1.4 ml of PBS to collect an analytical sample. […] The drug and the sample were administered orally during a period from day 18 to day 23 after the first ovalbumin […] (FIG. 1). Seven mice were used per group.
To measure airway hyperresponsiveness that is one of the major features of asthma, one chamber plethysmography (All Medicus, Korea) was used. The degree of airway resistance was evaluated by measuring enhanced pause (Pehn). For measurement of Pehn, the basis value was measured in a normal breathing state, and then PBS was inhaled for 3 minutes using an ultrasonic nebulizer, after which the Pehn value was measured for 3 minutes.

[3] = system: ovalbumin-induced asthma Balb/c mice; assay: Inflammatory cell count in bronchoalveolar lavage fluid, ovalbumin-induced asthma model; assay type: in vivo, mouse; settings: BALF; 30 mg/kg oral
Description: as §1
An increase in the number of eosinophils is one of the major features of asthma. Thus, in order to measure the number of eosinophils, the following experiment was performed. The bronchoalveolar lavage fluid from each mouse was stained with trypan blue immediately after collection, and the number of total cells (excluding dead cells) was calculated using a hemocytometer.

[4] = system: interleukins (IL-4, IL-5 and IL-13); assay: Th2 cytokines in bronchoalveolar lavage fluid (ELISA), ovalbumin-induced asthma model; assay type: in vivo, mouse; settings: BALF; 30 mg/kg oral
Description: as §1
The production of interleukins (IL-4, IL-5 and IL-13) in the bronchoalveolar lavage fluid isolated from each mouse was measured using a commercially available enzyme-linked immunosorbent assay (ELISA) kit (R&D System, USA). The analysis of each cytokine was performed according to the manufacturer's instruction, and the absorbance at 450 nm was measured using an ELISA reader (Molecular Devices, USA).

[5] = system: serum IgE and ovalbumin-specific IgE; assay: Serum IgE and ovalbumin-specific IgE (ELISA), ovalbumin-induced asthma model; assay type: in vivo, mouse; settings: 30 mg/kg oral
Description: as §1
The blood collected through the saphenous vein was incubated at room temperature for 30 minutes, and then centrifuged (3000 rpm, 15 min) to obtain serum. For measurement of serum IgE and ovalbumin-specific IgE, ELISA was used. IgE was measured using commercially available IgE (Biolegend Ins., USA). For measurement of ovalbumin-specific IgE, in a 96-well flat bottom ELISA plate, ovalbumin was dissolved in 0.1 M NaHCO3 buffer (pH 8.3) at a concentration of 20 μg/mL and incubated at 4° C. for 16 hours. Next, PBS containing 1% bovine serum albumin (BSA) was added to suppress nonspecific reactions. The serum sample was diluted at 1:400, allowed to react at room temperature for 2 hours, and then washed with PBS containing 0.05% Tween 20. Horseradish peroxidase (HRP)-conjugated goat […] polyclonal A was diluted 4000-fold and allowed to react at room temperature for 1 hour, and then color development was performed using 3,3′5,5′-tetramethylbenzidine substrate.

[6] = system: IL-4 mRNA; assay: Inhibition of PMA-induced expression of IL-4 mRNA in EL-4 cells (PCR); assay type: cell-based, mouse; settings: 20 μg/mL, PMA 1 ng/mL; for Inhibition (%) of IL-4 mRNA expression: compared to PMA-treated group
Description: Based on the results of Example 1, each of the monoacetyldiacylglycerol compounds was added to EL-4 cells at a concentration of 20 μg/mL, and the effect thereof on the inhibition of PMA-induced expression of IL-4 mRNA in the EL-4 cells was measured. Specifically, the expression level of IL-4 mRNA induced by PMA (1 ng/mL) was measured using real-time polymerase chain reaction (real-time PCR) and quantitative real time polymerase chain reaction (qPCR). For cell preparation, EL-4 cells were seeded into a 6-well plate at a concentration of 1×10^6 cells/well and cultured for 12 hours, after which the cells were treated with each of the monoacetyldiacylglycerol compounds at a concentration of 20 μg/mL for 1 hour and treated with PMA at a concentration of 1 ng/ml, followed by culture for 12 hours. Total RNA was extracted from the cells using Trizol B (Invitrogen, USA) and quantified, and then cDNA was synthesized from the total RNA using an Omniscript RT kit (Qiagen, GmbH, Hilden, Germany). The synthesized cDNA as a template was mixed with each of the IL-4 and GAPDH primers shown in Table 2 below and was subjected to PCR using a PCR mix (PCR Master Mix, Bioneer, Korea) under the following conditions: denaturation at 94° C. for 5 minutes; and then 30 cycles, each consisting of 30 sec at 95° C., 45 sec at 60° C., and 45 sec at 72° C.; followed by enzyme inactivation at 72° C. for 10 minutes. The results of measuring the percent inhibition of expression of IL-4 mRNA in EL-4 cells as described above are shown in Table 3 below. The designation of each of the samples shown in Table 3 below is as described with respect to Table 1 above.

[7] = system: EL-4 cells; assay: Cytotoxicity of monoacetyldiacylglycerol compounds in EL-4 cells (CCK-8 cell viability); settings: 24 hours
Description: as §2

CCCCCCCC/C=C\CCCCCCCC(=O)OC(COC(C)=O)COC(=O)CCCCCCCCCCCCCCC (stereo not drawn) [POAG, 1-palmitoyl-2-oleoyl-3-acetylglycerol]
EL-4 cell viability (%, mean ± SD) ([1]; 5 μg/ml): 106.94 ± 2.69% | EL-4 cell viability (%, mean ± SD) ([1]; 10 μg/ml): 106:39 ±1.19% | EL-4 cell viability (%, mean ± SD) ([1]; 20 μg/ml): 98.90 ± 1.16%

CC(C)(O)c1ccccc1CC[C@@H](SCC1(CC(=O)O)CC1)c1cccc(/C=C/c2ccc3ccc(Cl)cc3n2)c1 [Mon, montelukast, reference compound]
Pehn value ([2]; methacholine 0 mg/mL): 0.590 ± 0.07 | Pehn value ([2]; methacholine 12.5 mg/mL): 1.261 ± 0.29 | Pehn value ([2]; methacholine 25 mg/mL): 3.046 ± 0.61 | Pehn value ([2]; methacholine 50 mg/mL): 4.182 ± 0.99 | Inflammatory cell number, Eosinophils [3]: 54 ± 17.8* 10^5 per mouse | Inflammatory cell number, Lymphocytes [3]: 11 ± 10.6 10^5 per mouse | Inflammatory cell number, Macrophages [3]: 99 ± 21.4* 10^5 per mouse | Inflammatory cell number, Neutrophils [3]: 14 ± 5.2 10^5 per mouse | Inflammatory cell number, Total cells [3]: 179 ± 44.0* 10^5 per mouse | Th2 cytokines, IL-4 [4]: 18.69 ± 3.00 pg/mL | Th2 cytokines, IL-5 [4]: 22.74 ± 3.59 pg/mL | Th2 cytokines, IL-13 [4]: 81.42 ± 25.59 pg/mL | IgE [5]: 2.03 ± 0.49 µg/mL | OVA specific IgE [5]: 198.15 ± 42.65 µg/mL

CCCCCCCCCCCCCCCCCC(=O)OC(COC(C)=O)COC(=O)CCCCCCCCCCCCCCC (stereo not drawn) [PSAG, 1-palmitoyl-2-stearoyl-3-acetylglycerol]
EL-4 cell viability (%, mean ± SD) ([1]; 5 μg/ml): 98.46 ± 0.33% | EL-4 cell viability (%, mean ± SD) ([1]; 10 μg/ml): 100.66 ± 1.25% | EL-4 cell viability (%, mean ± SD) ([1]; 20 μg/ml): 103.30 ± 2.15%

CCCCCCCCCCCCCCCC(=O)OCC(COC(C)=O)OC(=O)CCCCCCCCCCCCCCC (stereo not drawn) [PPAG, 1-palmitoyl-2-palmitoyl-3-acetylglycerol]
EL-4 cell viability (%, mean ± SD) ([1]; 5 μg/ml): 106.28 ± 1.39% | EL-4 cell viability (%, mean ± SD) ([1]; 10 μg/ml): 105.84 ± 1.38% | EL-4 cell viability (%, mean ± SD) ([1]; 20 μg/ml): 96.59 ± 0.69%

CCCCCCCC/C=C\CCCCCCCC(=O)OCC(COC(C)=O)OC(=O)CCCCCCCCCCCCCCC (stereo not drawn) [OPAG, 1-oleoyl-2-palmitoyl-3-acetylglycerol]
EL-4 cell viability (%, mean ± SD) ([1]; 5 μg/ml): 98.04 ± 0.94% | EL-4 cell viability (%, mean ± SD) ([1]; 10 μg/ml): 98.91 ± 1.68% | EL-4 cell viability (%, mean ± SD) ([1]; 20 μg/ml): 99.56 ± 2.86%

CCCCC/C=C\C/C=C\CCCCCCCC(=O)OCC(COC(C)=O)OC(=O)CCCCCCCCCCCCCCCCC (stereo not drawn) [LSAG, 1-linoeoyl-2-stearoyl-3-acetylglycerol]
Expression level of IL-4 mRNA (percentage relative to PMA-treated group) [6]: 41.62 ± 17.61% | Inhibition (%) of IL-4 mRNA expression [6]: 58.38% | EL-4 cell viability (%, mean ± SD) ([7]; 5 μg/ml): 103.82 ± 1.80% | EL-4 cell viability (%, mean ± SD) ([7]; 10 μg/ml): 101.85 ± 1.00% | EL-4 cell viability (%, mean ± SD) ([7]; 20 μg/ml): 98.15 ± 1.82%

CCCCC/C=C\C/C=C\CCCCCCCC(=O)OCC(COC(C)=O)OC(=O)CCCCCCCCCCCCCCC (stereo not drawn) [LPAG, 1-linoeoyl-2-palmitoyl-3-acetylglycerol]
Expression level of IL-4 mRNA (percentage relative to PMA-treated group) [6]: 61.11 ± 27.49% | Inhibition (%) of IL-4 mRNA expression [6]: 38.89% | EL-4 cell viability (%, mean ± SD) ([7]; 5 μg/ml): 99.67 ± 1.15% | EL-4 cell viability (%, mean ± SD) ([7]; 10 μg/ml): 98.91 ± 0.50% | EL-4 cell viability (%, mean ± SD) ([7]; 20 μg/ml): 99.13 ± 1.18%

CCCCCCCC/C=C\CCCCCCCC(=O)OCC(COC(C)=O)OC(=O)CCCCCCCCCCCCCCCCC (stereo not drawn) [OSAG, 1-oleoyl-2-stearoyl-3-acetylglycerol]
EL-4 cell viability (%, mean ± SD) ([1]; 5 μg/ml): 102.62 ± 2.18% | EL-4 cell viability (%, mean ± SD) ([1]; 10 μg/ml): 100.98 ± 2.37% | EL-4 cell viability (%, mean ± SD) ([1]; 20 μg/ml): 100.22 ± 0.68%
